Test results published in patent US6632803B1, “Pharmaceutical formulations containing voriconazole” (Pfizer Inc, priority 1997, dated 2003).
In brackets after ≈: the same amount, converted by molar mass.

Experiments:
Type in all cases: physicochemical
[1] = aqueous solubility of voriconazole; details: aqueous solution, pH 3, aqueous buffer
stability in water = details: inactive enantiomer formed from recombination of retro-aldol products of hydrolysis
log D of voriconazole = test: log D of voriconazole

C[C@@H](c1ncncc1F)[C@](O)(Cn1cncn1)c1ccc(F)cc1F [Voriconazole]
solubility [1]: 0.2 mg/mL (≈ 573 µM) | stability in water (stability in water): not stable in water | logD (log D of voriconazole): 1.8
